Test results: ChEMBL document CHEMBL3739390, “Plantadeprate A, a Tricyclic Monoterpene Zwitterionic Guanidium, and Related Derivatives from the Seeds of Plantago depressa” (2015)

Legend:
Hepatocyte [1] = assay: Antihyperglycemic activity in Sprague-Dawley rat hepatocytes assessed as inhibition of glucose production at 40 uM after 6 hrs by glucose oxidase activity assay; format: functional
[2] = target: T1, Angiotensin-converting enzyme (Oryctolagus cuniculus) (UniProt P12822); assay: Inhibition of rabbit lung ACE using hippuryl-histidyl-leucine as substrate assessed as hippuric acid formation at 10 mM by UPLC-MS analysis
T1 sequence (whole entry): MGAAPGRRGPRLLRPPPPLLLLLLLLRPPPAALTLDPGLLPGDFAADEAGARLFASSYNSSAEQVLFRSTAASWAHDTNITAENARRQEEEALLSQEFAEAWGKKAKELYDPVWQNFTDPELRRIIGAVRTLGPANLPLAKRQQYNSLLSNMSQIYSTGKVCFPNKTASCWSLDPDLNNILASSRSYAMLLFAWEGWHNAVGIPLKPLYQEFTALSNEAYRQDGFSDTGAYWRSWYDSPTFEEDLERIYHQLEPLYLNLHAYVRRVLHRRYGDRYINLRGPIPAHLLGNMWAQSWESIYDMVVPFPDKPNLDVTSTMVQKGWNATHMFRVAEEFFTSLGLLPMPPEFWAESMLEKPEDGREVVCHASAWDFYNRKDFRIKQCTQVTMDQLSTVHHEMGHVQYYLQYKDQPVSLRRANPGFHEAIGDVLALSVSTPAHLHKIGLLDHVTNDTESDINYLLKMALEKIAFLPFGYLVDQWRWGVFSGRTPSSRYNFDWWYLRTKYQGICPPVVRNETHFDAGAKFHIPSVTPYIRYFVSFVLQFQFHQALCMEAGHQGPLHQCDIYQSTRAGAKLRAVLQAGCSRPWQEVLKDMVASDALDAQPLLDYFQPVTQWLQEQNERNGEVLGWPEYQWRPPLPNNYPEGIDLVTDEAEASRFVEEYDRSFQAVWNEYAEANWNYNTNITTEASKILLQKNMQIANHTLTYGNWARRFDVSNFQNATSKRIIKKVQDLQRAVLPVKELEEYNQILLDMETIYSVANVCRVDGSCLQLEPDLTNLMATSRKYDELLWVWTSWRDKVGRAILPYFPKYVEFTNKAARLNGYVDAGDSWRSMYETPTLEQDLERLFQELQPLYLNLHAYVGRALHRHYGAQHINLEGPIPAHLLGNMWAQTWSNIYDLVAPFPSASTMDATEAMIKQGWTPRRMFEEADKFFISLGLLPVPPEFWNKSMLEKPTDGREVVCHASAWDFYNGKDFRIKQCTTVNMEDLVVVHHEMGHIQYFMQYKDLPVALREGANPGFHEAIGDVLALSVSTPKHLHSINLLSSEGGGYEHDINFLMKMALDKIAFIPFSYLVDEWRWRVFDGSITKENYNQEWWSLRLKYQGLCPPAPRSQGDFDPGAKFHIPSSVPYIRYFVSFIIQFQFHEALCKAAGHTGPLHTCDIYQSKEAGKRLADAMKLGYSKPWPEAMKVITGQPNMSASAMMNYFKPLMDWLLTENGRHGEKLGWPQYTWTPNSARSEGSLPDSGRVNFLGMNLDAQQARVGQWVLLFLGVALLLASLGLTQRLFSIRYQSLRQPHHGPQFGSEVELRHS

Saccharomyces cerevisiae = assay: Inhibition of Saccharomyces cerevisiae alpha-glucosidase using 4-nitrophenyl alpha-glucopyranoside as substrate at 6.25 mM preincubated for 10 mins followed by substrate addition measured after 20 mins by spectrophotometric analysis
Hepatocyte [3] = assay: Antihyperglycemic activity in Sprague-Dawley rat hepatocytes assessed as inhibition of glucose production at 2 mM after 6 hrs by glucose oxidase activity assay; format: functional

SMILES	inhibition at 40 µM (Hepatocyte [1]) [%]	inhibition [2] [%]	inhibition (Saccharomyces cerevisiae) [%]	inhibition at 2000 µM (Hepatocyte [3]) [%]
CC(C)=CCC[C@@H](C(=O)O)[C@@H]1CN(CC(O)CCO)C(=N)N1 (stereo partly specified)	18.5	–	–	–
CC(C)=CCC[C@@H](C(=O)O)[C@@H]1CNC(=N)N1	12.5	–	–	–
CC1(C)C[C@]2(O)C[C@@H](C(=O)[O-])[C@@H]3CNC(=[N+]32)N1	8.2	26	20	–
CN(C)C(=N)NC(=N)N [METFORMIN]	–	–	–	25
